Reference: EP0034752A1, “Phenoxyalkane derivative and processes for preparing same” (Tanabe Seiyaku Co., Ltd., priority 1980, dated 1981)

Key:
[1] = Maximum tolerated dose, i.p.; parameters: species or system mice; settings: mouse, in vivo, ip
[2] = system: central nervous system in mice; test: Effect on spontaneous motor activity in mice; format: in vivo; settings: Mus musculus, ip, 0.5 h; i.p., male mice; activity measured 30 minutes after administration; dose decreasing activity by 50 % of control; read-out: Effect on central nervous system (ED50, mg/kg) spontaneous mortor activity
Experimental: (§1) The effect of a test compound on central nervous system was examined by the following methods.
(1) Effect on spontaneous mortor activity:
A solution or suspension of a test compound in water or an aqueous carboxymethylcellulose solution was administered intraperitoneally to male mice weighing 18 to 20 g (each group consisting of 5 mice). Thirty minutes after administration of the test compound, the spontaneous mortor activity of the mice was measured with an animex activity meter for 5 minutes. The 50 % effective dose (ED50) of the test compound was estimated in terms of a dose which is necessary to decrease the mortor activity of the medicated mice by 50 % of that of a control group (i.e., non-medicated mice).

[3] = system: central nervous system in mice; test: Effect on sodium hexobarbital-induced anesthesia in mice; format: in vivo; settings: Mus musculus, ip, 0.5 h, male mice; sodium hexobarbital 100 mg/kg i.p. 30 minutes later; dose prolonging sleeping time twice that of control
Experimental: as §1
(2) Effect on sodium hexobarbital-induced anesthesia:
A solution or suspension of a test compound in water or an aqueous carboxymethylcellulose solution was administered intraperitoneally to male mice weighing 18 to 20 g (each group consisting of 5 mice). Thirty minutes after intraperitoneal administration of the test compound, sodium hexobarbital (100 mg/kg) was administered intraperitoneally to the mice, and the sleeping time was measured as the interval between the loss and recovery of the righting reflex. The 50.% effective dose (ED50) of the test compound was estimated in terms of dose which is necessary to prolong the sleeping time of the medicated mice twice as long as that of a control group (i.e., non-medicated mice).

[4] = system: central nervous system in mice; test: Anti-apomorphine activity (cage climbing) in mice; format: in vivo; settings: Mus musculus, ip, 0.5 h; i.p., male mice; apomorphine hydrochloride 2.5 mg/kg s.c. 30 minutes later; dose decreasing number of climbing mice by 50 %; read-out: Effect on central nervous system (ED50, mg/kg) Anti-apomorphine activity
Experimental: as §1
(3) Anti-apomorphine activity:
A solution or suspension of a test compound in water or an aqueous carboxymethylcellulose solution was administered intraperitoneally to male mice weighing 18 to 20 g (each group consisting of 5 mice). Thirty minutes after administration of the test compound, apomorphine hydrochloride (2.5 mg/kg) was administered subcutaneously to the mice, and the number of the mice which could climb a cage was examined. The 50 % effective dose (ED50) of the test compound was estimated in terms of a dose which is necessary to decrease the number of the medicated mice which could climb the cage by 50 % of the number of a control group (i.e., non-medicated mice) which could climb the cage.

[5] = system: intracranial pressure in rats; test: Effect of i.v. injection of test compounds on intracranial pressure in rats; format: in vivo; settings: for Change (%) in intra-cranial pressure: dose one mg/kg, i.v. infusion in 5 w/v % mannitol, anesthetized male SD-rats, value before administration = 100
Experimental: (Effect of i.v., injection of test compounds on intracranial pressure in rats)
Male SD-rats weighing 500 to 800 g (each group consisting of 5 rats) were anesthetized with urethane. A solution of a test compound in an aqueous 5 w/v % mannitol solution was infused via the femoral vein at a rate of 0.2 ml/kg/minute for 20 minutes (when the test compound was used in the form of free base, said solution was prepared by dissolving it in an aqueous 5 w/v % mannitol solution with the aid of 0.5 N hydrochloric acid). Intracranial pressure (i.e., cerebrospinal fluid pressure in the cisterna magna) was continuously monitored via a canula introduced in the cisterna magna. The canula was connected to a transducer, and recording were made on graph paper. The effect of the test compound on-the intracranial pressure was estimated in terms of the increase or decrease in intracranial pressure, which was calculated in accordance with the following formula: […]

[6] = 40 minutes after administration
[7] = 60 minutes after administration
[8] = 120 minutes after administration

Row | SMILES | MTD [1] [mg/kg] | ED50 [2] [mg/kg] | ED50 [3] [mg/kg] | ED50 [4] [mg/kg] | Change (%) in intra-cranial pressure [5, 6] [%] | Change (%) in intra-cranial pressure [5, 7] [%] | Change (%) in intra-cranial pressure [5, 8] [%] | decrease in the intracranial pressure ([5]; 40 minutes after administration, dose 1 mg/kg, infused via the femoral vein of rats in 5 w/v % mannitol for 20 minutes)
1 | COc1cc(NC(C)=O)ccc1COCCCN1CCN(c2ccccc2)CC1 [1-(4-acetamido-2-methoxybenzyloxy)-3-(4-phenylpiperazino)-n-propane] | 100 | 5 | 10 | 7 |  |  |  | 
2 | COc1cc(NC(C)=O)ccc1OCC(C)CN1CCN(c2ccccc2)CC1 (centres unmarked) [1-(4-acetamido-2-methoxyphenoxy)-3-(4-phenylpiperazino)-2-methyl-n-propane] |  |  |  |  | 66.4 | 73.8 | 83.8 | 
3 | COc1cc(NC(C)=O)ccc1OCCCN1CCC(O)(c2ccc(Cl)cc2)CC1 [1-(4-acetamido-2-methoxyphenoxy)-3-[4-(4-chlorophenyl)-4-hydroxy-piperidino]-n-propane] |  |  |  |  | 94.2 | 95.4 | 90.7 | 
4 | CC(=O)Nc1ccc(COCCCN2CCN(c3ccccc3)CC2)cc1 [1-(4-acetamidobenzyloxy)-3-(4-phenylpiperazino)-n-propane] |  |  |  |  | 77.0 | 83.1 | 97.9 | about 23%
